For this experiment, the target named is AMPK. Kind of experiment: AMPK activation, enzyme-linked immunosorbent assay. In kind it is biochemical. The settings on record: EC50 for AMPK activation, ELISA. The method in brief: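 Compounds were tested for their capacity to activate the kinase using standard, commercially available kit reagents and procedures.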
One may read the EC50 as the concentration at which the effect is half-maximal. A low value points to a more potent agent. As for `CC(C)(C)OC(=O)NCC#Cc1cc(C(=O)N2CCN(Cc3ccc(F)cc3)CC2)cnc1C(=O)NC1CCN(Cc2ccc(C#N)cc2)CC1` [Compound 164, tert-butyl 3-(2-(1-(4-cyanobenzyl)piperidin-4-ylcarbamoyl)-5-(4-(4-fluorobenzyl)piperazine-1-carbonyl)pyridin-3-yl)prop-2-ynylcarbamate], the 50% effective concentration (EC50) fell in the range of 500 to 1000 nM. For `O=C(Nc1ccc(Oc2ccc(F)cc2)nc1)c1ccc(C(=O)N2CCC(Oc3cccc(NC(=O)C4CC4)c3)CC2)nc1` [Compound 433, 6-(4-(3-(cyclopropanecarboxamido)phenoxy)piperidine-1-carbonyl)-N-(6-(4-fluorophenoxy)pyridin-3-yl)nicotinamide], the EC50 was < 500 nM. Consider `N#Cc1ccc(CN2CCC(NC(=O)c3ccc(C(=O)N4CCC(C(=O)c5ccc(N6CCOCC6)cc5)CC4)cn3)CC2)cc1` [Compound 376, N-(1-(4-cyanobenzyl)piperidin-4-yl)-5-(4-(4-morpholinobenzoyl)piperidine-1-carbonyl)picolinamide], for which the half-maximal effective concentration (EC50) is < 500 nM. For `COc1ccc(CN2CCC(N(C)C(=O)c3ccc(C(=O)N4CCC(C(=O)c5ccc(OC)cc5)CC4)nc3)CC2)cc1` [Compound 484, 6-(4-(4-methoxybenzoyl)piperidine-1-carbonyl)-N-(1-(4-methoxybenzyl)piperidin-4-yl)-N-methylnicotinamide] the value was < 500 nM.

Regarding `COc1ccc(CN2CCC(NC(=O)c3ccc(C(=O)N4CCC(Oc5ccc(F)cc5F)CC4)nc3)CC2)cc1` [Compound 344, 6-(4-(2,4-difluorophenoxy)piperidine-1-carbonyl)-N-(1-(4-methoxybenzyl)piperidin-4-yl)nicotinamide], the 50% effective concentration (EC50) was < 500 nM. On to `COc1ccc(C(=O)C2CCN(C(=O)c3ccc(C(=O)NC4CCN(Cc5ccc(C#N)cc5)CC4)nc3)CC2)cc1` [Compound 129, N-(1-(4-cyanobenzyl)piperidin-4-yl)-5-(4-(4-methoxybenzoyl)piperidine-1-carbonyl)picolinamide], for which the EC50 is < 500 nM. For `O=C(NC1CCN(Cc2ccccc2)CC1)c1ccc(C(=O)N2CCN(Cc3ccccc3)CC2)cn1` [Compound 72, 5-(4-benzylpiperazine-1-carbonyl)-N-(1-benzylpiperidin-4-yl)picolinamide] the value was < 500 nM; for `N#Cc1ccc(CN2CCC(NC(=O)c3ccc(C(=O)N4CCC(Oc5ccc(F)cc5F)CC4)cn3)CC2)cc1` [Compound 282, N-(1-(4-cyanobenzyl)piperidin-4-yl)-5-(4-(2,4-difluorophenoxy)piperidine-1-carbonyl)picolinamide], < 500 nM. For `COc1ccc(CN2CCC(NC(=O)c3ccc(C(=O)N4CCC(C(=O)c5ccc(S(C)(=O)=O)cc5)CC4)cn3)CC2)cc1` [Compound 234, N-(1-(4-methoxybenzyl)piperidin-4-yl)-5-(4-(4-(methylsulfonyl)benzoyl)piperidine-1-carbonyl)picolinamide] the value was < 500 nM. For `O=C(Nc1ccc(Oc2ccc(F)cc2)nc1)c1ccc(C(=O)N2CCC(C(=O)c3ccc(F)cc3)CC2)cn1` [Compound 272, 5-(4-(4-fluorobenzoyl)piperidine-1-carbonyl)-N-(6-(4-fluorophenoxy)pyridin-3-yl)picolinamide] the value was < 500 nM; for `COc1ccc(C(=O)C2CCN(c3ccc(C(=O)NC4CCN(Cc5ccc(C#N)cc5)CC4)nn3)CC2)cc1` [Compound 362, N-(1-(4-cyanobenzyl)piperidin-4-yl)-6-(4-(4-methoxybenzoyl)piperidin-1-yl)pyridazine-3-carboxamide], < 500 nM. For `CS(=O)(=O)c1ccc(N2CCN(C(=O)c3ccc(C(=O)NC4CCN(Cc5ccc(C#N)cc5)CC4)nc3)CC2)cc1` [Compound 250, N-(1-(4-cyanobenzyl)piperidin-4-yl)-5-(4-(4-(methylsulfonyl)phenyl)piperazine-1-carbonyl)picolinamide], the EC50 is < 500 nM.

Values taken from patent US9663496B2, “AMPK-activating heterocyclic compounds and methods for using the same” (Rigel Pharmaceuticals, Inc., priority 2010, dated 2017).
